Data published in patent EP1144368B1, “ACETYLENIC ALPHA-AMINO ACID-BASED SULFONAMIDE HYDROXAMIC ACID TACE INHIBITORS” (priority 1999, dated 2000).
Counter-ions that a name gives are not always drawn.

Tested on: THP-1 cells
Assay: THP-1 Soluble Protein Assay (LPS-stimulated; ELISA of TNF-a, TNF-R p75/80, TNF-R p55/60, IL-8)
Assay type: cell-based, human
Settings: 3 µM

With `CC#CCOc1ccc(S(=O)(=O)N2CC[S+]([O-])C(C)(C)C2C(=O)NO)cc1` (single isomer, unassigned) [Example 255] the “THP % inhibition @ 3 µM” value was 95%.

Same assay, conditions: Homo sapiens, THP-1, 3 µM; read-out: THP % Inhibition @ 3µM

Compound `CC#CCOc1ccc(S(=O)(=O)N2CCCN(C(=O)c3ccccc3)CC2C(=O)NO)cc1` (centres unmarked) [Example 49, 4-Benzoyl-1-(4-but-2-ynyloxy-benzenesulfonyl)-[1,4]diazepane-2-carboxylic acid hydroxyamide] has an inhibition at 3 µM of 32%.

Same assay, conditions: Homo sapiens, THP-1, read-out: THP % inhibition @ 3 µM

Compound `CC1(C)SCCN(S(=O)(=O)c2ccc(OCC#CCO)cc2)C1C(=O)NO` (centres unmarked) [Example 61, 4-[4-(4-Hydroxy-but-2-ynyloxy)-benzenesulfonyl]-2,2-dimethyl-thiomorpholine-3-carboxylic acid hydroxyamide] has an inhibition at 3 µM of 89%.

Same assay, conditions: Homo sapiens, THP-1, read-out: THP % inhibition @ 3 µM, 3 µM

First: CC#CCOc1ccc(S(=O)(=O)N2CC[S+]([O-])C(C)(C)C2C(=O)NO)cc1 (single isomer, unassigned) [Example 256]
Second: CC#CCOc1ccc(S(=O)(=O)N2CCN(C)CC2C(=O)NO)cc1 (centres unmarked) [Example 56, 1-(4-But-2-ynyloxy-benzenesulfonyl)-4-methyl-piperazine-2-carboxylic acid hydroxyamide hydrochloride]
The inhibition at 3 µM of the first is higher: 92% for the first, 32% for the second.

Going from `CC#CCOc1ccc(S(=O)(=O)N(C)C(C(=O)NO)C(C)C)cc1` (centres unmarked) [Example 9, 2-[(4-But-2-ynyloxy-benzenesulfonyl)-methyl-amino]-N-hydroxy-3-methyl-butyramide] to `CC#CCOc1ccc(S(=O)(=O)N(CC)C(C(=O)NO)C(C)C)cc1` (centres unmarked) [Example 108, 2-[(4-But-2-ynyloxy-benzenesulfonyl)-ethyl-amino]-N-hydroxy-3-methyl-butyramide], the inhibition at 3 µM falls from 94% to 76%.

First: CC#CCOc1ccc(S(=O)(=O)N(Cc2cccnc2)C(C)C(=O)NO)cc1 (centres unmarked) [Example 33, 2-[(4-But-2-ynyloxy-benzenesulfonyl)-pyridin-3-ylmethyl-amino]-N-hydroxy-propionamide hydrochloride]
Second: CC#CCOc1ccc(S(=O)(=O)N(Cc2cccnc2)C(C(=O)NO)C(C)C)cc1 (centres unmarked) [Example 114, 2-[(4-But-2-ynyloxy-benzenesulfonyl)-pyridin-3-ylmethyl-amino]-N-hydroxy-3-methyl-butyramide]
The inhibition at 3 µM of the first is higher: 80% for the first, 75% for the second.

Going from `CCCCC#CCOc1ccc(S(=O)(=O)N2CCSC(C)(C)C2C(=O)NO)cc1` (centres unmarked) [Example 40, 4-(4-Hept-2-ynyloxy-benzenesulfonyl)-2,2-dimethyl-thiomorpholine-3-carboxylic acid hydroxyamide] to `CC#CCOc1ccc(S(=O)(=O)N2CCN(C(=O)OC(C)(C)C)CC2C(=O)NO)cc1` (centres unmarked) [Example 58, 4-(4-But-2-ynyloxy-benzenesulfonyl)-3-hydroxycarbamoyl-piperazine-1-carboxylic acid tert-butyl ester], the inhibition at 3 µM falls from 82% to 79%.

Going from `CC#CCOc1ccc(S(=O)(=O)N2Cc3ccccc3CC2C(=O)NO)cc1` (centres unmarked) [Example 41, 2-(4-But-2-ynyloxy-benzenesulfonyl)-1,2,3,4-tetrahydro-isoquinoline-3-carboxylic acid hydroxyamide] to `CC#CCOc1ccc(S(=O)(=O)N(CCCc2ccccc2)C(C(=O)NO)C(C)C)cc1` (centres unmarked) [Example 111, 2-[(4-But-2-ynyloxy-benzenesulfonyl)-(3-phenyl-propyl)-amino]-N-hydroxy-3-methyl-butyramide], the inhibition at 3 µM falls from 93% to 35%.

Going from `C#CCN(C(C(=O)NO)C(C)C)S(=O)(=O)c1ccc(OCC#CC)cc1` (centres unmarked) [Example 109, 2-[{[4-(2-Butynyloxy)phenyl]sulfonyl}(2-propynyl)amino]-N-hydroxy-3-methylbutanamide] to `CC#CCOc1ccc(S(=O)(=O)N(CCC)C(C(=O)NO)C(C)C)cc1` (centres unmarked) [Example 110, 2-[(4-But-2-ynyloxy-benzenesulfonyl)-propyl-amino]-N-hydroxy-3-methyl-butyramide], the inhibition at 3 µM falls from 85% to 47%.

First: CC#CCOc1ccc(S(=O)(=O)N(CC2CC2)C(C(=O)NO)C(C)C)cc1 (centres unmarked) [Example 112, 2-[(4-But-2-ynyloxy-benzenesulfonyl)-cyclopropylmethyl-amino]-N-hydroxy-3-methyl-butyramide]
Second: CC#CCOc1ccc(S(=O)(=O)N(CC(C)C)C(C(=O)NO)C(C)C)cc1 (centres unmarked) [Example 113, 2-[(4-But-2-ynyloxy-benzenesulfonyl)-isobutyl-amino]-N-hydroxy-3-methyl-butyramide]
The inhibition at 3 µM of the first is higher: 50% for the first, 0% for the second.

Going from `CC#CCOc1ccc(S(=O)(=O)N(C)C(C(=O)NO)C2CCCCC2)cc1` (centres unmarked) [Example 115, 2-[(4-But-2-ynyloxy-benzenesulfonyl)-methyl-amino]-2-cyclohexyl-N-hydroxy-acetamide] to `CC#CCOc1ccc(S(=O)(=O)N(C)[C@@H](C(=O)NO)[C@H]2CC[C@H](O)CC2)cc1` [Example 130], the inhibition at 3 µM rises from 89% to 92%.

Compared with `CC#CCOc1ccc(S(=O)(=O)N(Cc2cccnc2)[C@@H](C(=O)NO)C2CCCCC2)cc1` [Example 116, 2-[(4-But-2-ynyloay-benzenesulfonyl)-pyridin-3-ylmethyl-amino]-2-cyclohexyl-N-hydroxy-acetamide], `CC#CCOc1ccc(S(=O)(=O)N(Cc2cccnc2)C2(C(=O)NO)CCCCC2)cc1` [Example 137, 1-[{[4-(2-Butynyloxy)phenyl]sulfonyl}(3-pyridinylmethyl)amino] N-hydroxycyclohexanecarboxamide] is lower in inhibition at 3 µM: 75% for the first, 0% for the second.

First: CC#CCOc1ccc(S(=O)(=O)N(Cc2ccc(OCCN3CCCCC3)cc2)C(C(=O)NO)C2CCCCC2)cc1 (centres unmarked) [Example 117, 2-{(4-But-2-ynyloxy-benzenesulfonyl)-[4-(2-piperidin-1-yl-ethoxy)-benzyl]-amino}-2-cyclohexyl-N-hydroxy-acetamide]
Second: CC#CCOc1ccc(S(=O)(=O)N(C)C(C(=O)NO)C(C)(C)SCCN2CCCC2)cc1 (centres unmarked) [Example 143, 2-({[4-(2-Butynyloxy)phenyl]sulfonyl)(methyl)amino]-N-hydroxy-3-methyl-3-{[2(1-pyrrolidinyl)ethyl]sulfanyl}butanamide]
The inhibition at 3 µM of the first is higher: 88% for the first, 86% for the second.

Going from `CC#CCOc1ccc(S(=O)(=O)N(CCCN(CC)CC)C(C(=O)NO)C(C)C)cc1` (centres unmarked) [Example 118, 2-{{[4-(2-Butynyloxy)phenyl]sulfonyl}[3-(diethylamino)propyl]amino}-N-hydroxy-3-methylbutanamide] to `CC#CCOc1ccc(S(=O)(=O)N(CCCCN(CC)CC)C(C(=O)NO)C(C)C)cc1` (centres unmarked) [Example 121, 2-{{[4-(2-Butynyloxy)phenyl]sulfonyl}[4-(diethylamino)butyl]amino}-N-hydroxy-3-methylbutanamide], the inhibition at 3 µM falls from 77% to 65%.

Going from `CC#CCOc1ccc(S(=O)(=O)N(CCCN2CCOCC2)C(C(=O)NO)C(C)C)cc1` (centres unmarked) [Example 119, 2-{{[4-(2-Butynyloxy)phenyl]sulfonyl}[3-(4-morpholinyl)propyl]amino}-N-hydroxy-3-methylbutanamide] to `CC#CCOc1ccc(S(=O)(=O)N(CCN2CCOCC2)C(C(=O)NO)C(C)C)cc1` (centres unmarked) [Example 123, 2-[[[4-(2-Butynyloxy)phenyl]sulfonyl][2-(4-morpholinyl)ethyl]amino]-N-hydroxy-3-methylbutanamide], the inhibition at 3 µM falls from 61% to 35%.

Going from `CC#CCOc1ccc(S(=O)(=O)N(CCCN2CCN(C)CC2)C(C(=O)NO)C(C)C)cc1` (centres unmarked) [Example 120, 2-{{[4-(2-Butynyloxy)phenyl]sulfonyl}[3-(4-methyl-1-piperazinyl)propyl]amino}-N-hydroxy-3-methylbutanamide hydrochloride] to `CC#CCOc1ccc(S(=O)(=O)N(CC#CCN2CCN(C)CC2)C(C(=O)NO)C(C)C)cc1` (centres unmarked) [Example 125, 2-{{[4-(2-Butynyloxy)phenyl]sulfonyl}[4-(4-methyl-1-piperazinyl)-2-butynyl]amino}-N-hydroxy-3-methylbutanamide], the inhibition at 3 µM rises from 61% to 72%.

Going from `CC#CCOc1ccc(S(=O)(=O)N(CCN2CCOCC2)CC(=O)NO)cc1` [Example 124, 2-[{[4-(But-2-ynyloxy)phenyl]sulfonyl}(2-morpholin-4-ylethyl)amino]-N-hydroxyacetamide hydrochloride] to `CC#CCOc1ccc(S(=O)(=O)N(C)C(C(=O)NO)C(C)(C)SCCN2CCOCC2)cc1` (centres unmarked) [Example 140, 2-({[4-(2-Butynyloxy)phenyl]sulfonyl)(methyl)amino]-N-hydroxy-3 methyl-3-[(2(4-morpholinylethyl)sulfanyl]-butanamide hydrochloride], the inhibition at 3 µM rises from 24% to 80%.

Compared with `CC#CCOc1ccc(S(=O)(=O)N(CC#CCNC)C(C(=O)NO)C(C)C)cc1` (centres unmarked) [Example 127, 2-{{[4-(2-Butynyloxy)phenyl]sulfonyl}[4-(methylamino)-2-butynyl]amino}-N-hydroxy-3-methylbutanamide], `CC#CCOc1ccc(S(=O)(=O)N(CC#CCN2CCN(C)CC2)C(C)C(=O)NO)cc1` (centres unmarked) [Example 135, 2-{[[4-(2-butynyloxy)phenyl]sulfonyl][4-(4-methyl-1-piperazinyl)-2-butynylamino]}-N-hydroxypropanamide] is lower in inhibition at 3 µM: 83% for the first, 76% for the second.

Going from `CC#CCOc1ccc(S(=O)(=O)N(C)[C@@H](C(=O)NO)C2CCC(N(CC)CC)CC2)cc1` (stereo partly drawn) [Example 128, ((2R)-{[4-(2-Butynyloxy)phenyl]sulfonyl}(methyl)amino)[(4-diethylamino)cyclohexyl]-N-hydroxyethamide] to `CC#CCOc1ccc(S(=O)(=O)N(C)C(C(=O)NO)C(C)(C)SCCN(CC)CC)cc1` (centres unmarked) [Example 142, 2-({[4-(2-Butynyloxy)phenyl]sulfonyl)(methyl)amino]-N-hydroxy-3 methyl-3-{[2-(diethylamino)ethyl]sulfanyl}butanamide], the inhibition at 3 µM rises from 51% to 89%.

Compared with `CC#CCOc1ccc(S(=O)(=O)N(C)CC(=O)NO)cn1` [Example 131, 2-[(6-But-2-ynyloxy-pyridine-3-sulfonyl)-methyl-amino]-N-hydroxy-acetamide], `CC#CCOc1ccc(S(=O)(=O)N(C)C2(C(=O)NO)CCCCC2)cc1` [Example 136, 1-[{[4-(2-Butynyloxy)phenyl]sulfonyl}(methyl)amino] -N-hydroxycyclohexanecarboxamide] is lower in inhibition at 3 µM: 18% for the first, 0% for the second.

With `CC#CCOc1ccc(S(=O)(=O)N(C)C(C(=O)NO)C(C)(C)SCCN2CCN(C)CC2)cc1` (centres unmarked) [Example 141] the inhibition at 3 µM was 86%.
